Earlier results on one compound are cited in patent US20140323416A1, “5-METHYLDIHYDROMORPHONE COMPOUNDS FOR TREATMENT OF PAIN” (priority 2013, published 2014).

For the compound `CN1CC[C@]23c4c5ccc(O)c4O[C@@]2(C)C(=O)CC[C@H]3[C@H]1C5` [Metopon, metopon], where the note is “in vivo”, the bioavailability entry is listed as “low bioavailability” and the emetic action result is “nearly devoid of emetic action”. Also, where the note is “relative to morphine”, the analgesic effectiveness result is “at least double to that of morphine”, the duration of action entry is recorded as “about equal to that of morphine”, the physical dependence entry is listed as “built up more slowly than with morphine” and the potency entry was “reduced potency relative to morphine”. Further, for the setting “relative to morphine”, the tolerance entry was “develop more slowly and to disappear more quickly”. Besides, under “therapeutic analgesic doses”, the respiratory depression result was “little or no respiratory depression”. The mental dullness entry (therapeutic analgesic doses, relative to morphine) is on record as “much less mental dullness than morphine”.
